Measured values reported in ChEMBL document CHEMBL1201862, “PubChem BioAssay data set” (2004).
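Dose response: 5 concentrations. Exposure: 48 h. Format: 96-well plates. Endpoint: linear interpolation; highest concentration if not reached. Abbreviation: GI50, concentration required for 50% inhibition of growth.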 Activity calls are given as the source filed them. Rule as the data show it: active = GI50 up to about 1.1 µM and inactive = higher.

What was measured:
Assay in all cases: NCI-60 cell line screen, 48 h
786-0 = test system: 786-0
A498 = test system: A498
ACHN = test system: ACHN
CAKI-1 = test system: CAKI-1
HCT-15 = test system: HCT-15
HL-60 = test system: HL-60
Hs-578T = test system: Hs-578T
LOX IMVI = test system: LOX IMVI
MDA-MB-231 = test system: MDA-MB-231
MDA-N = test system: MDA-N
Malme-3M = test system: Malme-3M
NCI-H226 = test system: NCI-H226
NCI-H460 = test system: NCI-H460
NCI/ADR-RES = test system: NCI/ADR-RES
RPMI-8226 = test system: RPMI-8226
SK-MEL-5 = test system: SK-MEL-5
SNB-75 = test system: SNB-75
SR = test system: SR
T47D = test system: T47D
U-251 = test system: U-251

Compound | GI50 (786-0) | GI50 (A498) | GI50 (ACHN) | GI50 (CAKI-1) | GI50 (HCT-15) | GI50 (HL-60) | GI50 (Hs-578T) | GI50 (LOX IMVI) | GI50 (MDA-MB-231) | GI50 (MDA-N) | GI50 (Malme-3M) | GI50 (NCI-H226) | GI50 (NCI-H460) | GI50 (NCI/ADR-RES) | GI50 (RPMI-8226) | GI50 (SK-MEL-5) | GI50 (SNB-75) | GI50 (SR) | GI50 (T47D) | GI50 (U-251)
Clc1ccc(-c2cn3c(nc4ccccc43)c(-c3ccccc3)n2)cc1 | 9.35 µM (inactive) | 23.9 µM (inactive) | 29.6 µM (inactive) | 16.3 µM (inactive) | > 100 µM | > 100 µM (inactive) | 12.3 µM (inactive) | 32 µM (inactive) | 42.6 µM (inactive) | 27.2 µM (inactive) | 23.1 µM (inactive) | 47 µM (inactive) | 18 µM (inactive) | 34.9 µM (inactive) | > 100 µM (inactive) | 17.7 µM (inactive) | 9.51 µM (inactive) | > 82 µM (inactive) | 36.6 µM (inactive) | 12.8 µM (inactive)
CCN(CC)CCN1c2ccccc2Sc2ccc3ccccc3c21 | 11.3 µM (inactive) | 11.4 µM (inactive) | 13.7 µM (inactive) | 8.89 µM (inactive) | 6.9 µM | 3.54 µM (inactive) | 13.5 µM (inactive) | 7.52 µM (inactive) | 6.03 µM (inactive) | 12.3 µM (inactive) | 15.4 µM (inactive) | 7.45 µM (inactive) | 2.07 µM (inactive) | 10.6 µM (inactive) | 3.33 µM (inactive) | 4.72 µM (inactive) | 7.06 µM (inactive) | 4.94 µM (inactive) | 2.01 µM (inactive) | 9.38 µM (inactive)
c1c[nH]c(CN2CCN(Cc3ncc[nH]3)CC2)n1 | > 100 µM (inactive) | > 100 µM (inactive) | > 100 µM (inactive) | > 100 µM (inactive) | > 100 µM | > 100 µM (inactive) | > 100 µM (inactive) | > 100 µM (inactive) | > 100 µM (inactive) | > 100 µM (inactive) | > 100 µM (inactive) | > 100 µM (inactive) | > 100 µM (inactive) | > 100 µM (inactive) | > 100 µM (inactive) | > 100 µM (inactive) | > 100 µM (inactive) | > 100 µM (inactive) | > 100 µM (inactive) | > 100 µM (inactive)
O=C(NCCCCCCCN1CCCCCCC1)C(C1CCCCC1)C1CCCCC1 | 4.74 µM (inactive) | 5.83 µM (inactive) | 12 µM (inactive) | 7.14 µM (inactive) | 4.07 µM | 5.14 µM (inactive) | 21.7 µM (inactive) | 12 µM (inactive) | 8.51 µM (inactive) | 7.93 µM (inactive) | 3.34 µM (inactive) | 9.42 µM (inactive) | 9.1 µM (inactive) | 9.98 µM (inactive) | 2.56 µM (inactive) | 2.42 µM (inactive) | 9.79 µM (inactive) | 2.34 µM (inactive) | 6.05 µM (inactive) | 8.51 µM (inactive)
CC(C)(C)C1=CC(=C(c2ccc(-c3c4nc(c(-c5ccc(C(=C6C=C(C(C)(C)C)C(=O)C(C(C)(C)C)=C6)c6cc(C(C)(C)C)c(O)c(C(C)(C)C)c6)cc5)c5ccc([nH]5)c(-c5ccc(C(=C6C=C(C(C)(C)C)C(=O)C(C(C)(C)C)=C6)c6cc(C(C)(C)C)c(O)c(C(C)(C)C)c6)cc5)c5nc(c(-c6ccc(C(=C7C=C(C(C)(C)C)C(=O)C(C(C)(C)C)=C7)c7cc(C(C)(C)C)c(O)c(C(C)(C)C)c7)cc6)c6ccc3[nH]6)C=C5)C=C4)cc2)c2cc(C(C)(C)C)c(O)c(C(C)(C)C)c2)C=C(C(C)(C)C)C1=O | > 77.8 µM (inactive) | > 100 µM (inactive) | > 100 µM (inactive) | > 100 µM (inactive) | > 100 µM | > 100 µM (inactive) | > 100 µM (inactive) | > 100 µM (inactive) | > 100 µM (inactive) | > 100 µM (inactive) | > 100 µM (inactive) | > 100 µM (inactive) | > 100 µM (inactive) | > 100 µM (inactive) | > 100 µM (inactive) | > 100 µM (inactive) | > 100 µM (inactive) | > 100 µM (inactive) | > 100 µM (inactive) | > 100 µM (inactive)
N=c1oc2ccccc2cc1C(=O)Nc1ccccn1 | 37.8 µM (inactive) | > 100 µM (inactive) | 53.1 µM (inactive) | 45.4 µM (inactive) | 75 µM | > 100 µM (inactive) | 75 µM (inactive) | 54 µM (inactive) | > 100 µM (inactive) | > 100 µM (inactive) | 14 µM (inactive) | > 100 µM (inactive) | 95.9 µM (inactive) | > 100 µM (inactive) | > 100 µM (inactive) | > 100 µM (inactive) | > 100 µM (inactive) | 86.7 µM (inactive) | 43.7 µM (inactive) | > 100 µM (inactive)
NC(=O)NNCc1c(-c2ccccc2)no[n+]1[O-] | > 100 µM (inactive) | > 100 µM (inactive) | > 100 µM (inactive) | > 100 µM (inactive) | > 100 µM | > 100 µM (inactive) | > 100 µM (inactive) | > 100 µM (inactive) | > 100 µM (inactive) | > 100 µM (inactive) | > 100 µM (inactive) | > 100 µM (inactive) | > 100 µM (inactive) | > 100 µM (inactive) | > 100 µM (inactive) | > 100 µM (inactive) | > 100 µM (inactive) | > 100 µM (inactive) | > 100 µM (inactive) | > 100 µM (inactive)
CC(=O)OCc1cn(S(=O)(=O)c2ccc(C)cc2)cn1 | > 100 µM (inactive) | > 100 µM (inactive) | > 100 µM (inactive) | > 100 µM (inactive) | 18.5 µM | > 100 µM (inactive) | 36.5 µM (inactive) | 47.5 µM (inactive) | > 100 µM (inactive) | 12.5 µM (inactive) | > 100 µM (inactive) | > 100 µM (inactive) | 30.1 µM (inactive) | > 100 µM (inactive) | > 100 µM (inactive) | 46.9 µM (inactive) | > 100 µM (inactive) | 9.51 µM (inactive) | > 100 µM (inactive) | > 100 µM (inactive)
O=C(O)CCC1C(=O)C2CCN1CC2 (centres undefined) | > 100 µM (inactive) | 97.7 µM (inactive) | > 100 µM (inactive) | > 100 µM (inactive) | > 100 µM | > 100 µM (inactive) | > 100 µM (inactive) | > 100 µM (inactive) | > 100 µM (inactive) | > 100 µM (inactive) | > 100 µM (inactive) | > 100 µM (inactive) | > 100 µM (inactive) | > 100 µM (inactive) | > 100 µM (inactive) | > 100 µM (inactive) | > 100 µM (inactive) | > 100 µM (inactive) | > 100 µM (inactive) | > 100 µM (inactive)
CCCC(=O)Nc1cc(/C=C/C(=O)N2C[C@H]3C[C@@]34C2=CC(=O)c2[nH]cc(C)c24)n(C)c1 | < 0.0025 µM (active) | < 0.0025 µM (active) | < 0.0025 µM (active) | < 0.0025 µM (active) | 0.0103 µM | < 0.0025 µM (active) | 0.00273 µM (active) | < 0.0025 µM (active) | < 0.0025 µM (active) | < 0.0025 µM (active) | < 0.0025 µM (active) | < 0.0025 µM (active) | < 0.0025 µM (active) | 0.00982 µM (active) | 0.0161 µM (active) | < 0.0025 µM (active) | < 0.0025 µM (active) | < 0.0025 µM (active) | < 0.0025 µM (active) | < 0.0025 µM (active)
COc1ccc(C(=O)c2sc(N(C)C)nc2-c2ccccc2)cc1 | 34.4 µM (inactive) | 26.9 µM (inactive) | 33.7 µM (inactive) | – | 26.4 µM | 17.1 µM (inactive) | 38.7 µM (inactive) | 37.4 µM (inactive) | 33.7 µM (inactive) | 18.1 µM (inactive) | 37.4 µM (inactive) | 67.5 µM (inactive) | 20.2 µM (inactive) | 19.8 µM (inactive) | 33 µM (inactive) | 34 µM (inactive) | 35.2 µM (inactive) | 17.1 µM (inactive) | 33.6 µM (inactive) | 43 µM (inactive)
CSc1ncc2c(C#N)c3sc4ccccc4n3c(=O)c2n1 | 41.8 µM (inactive) | > 100 µM (inactive) | > 100 µM (inactive) | 73.8 µM (inactive) | 80.4 µM | > 100 µM (inactive) | 24.6 µM (inactive) | > 100 µM (inactive) | 41.1 µM (inactive) | > 100 µM (inactive) | > 100 µM (inactive) | 26.1 µM (inactive) | 22.4 µM (inactive) | 38.8 µM (inactive) | > 100 µM (inactive) | 64.6 µM (inactive) | 43.5 µM (inactive) | 19.6 µM (inactive) | 91.8 µM (inactive) | 24 µM (inactive)
COc1cc2c(c(OC)c1OC)-c1ccc(SC)c(=O)cc1[C@@H](NC(=O)C(F)(F)F)CC2 | < 0.01 µM (active) | < 0.01 µM (active) | < 0.01 µM (active) | < 0.0139 µM (active) | < 0.01 µM | < 0.01 µM (active) | < 0.01 µM (active) | < 0.01 µM (active) | < 0.01 µM (active) | < 0.01 µM (active) | < 0.01 µM (active) | 0.199 µM (active) | < 0.01 µM (active) | 0.0261 µM (active) | < 0.01 µM (active) | < 0.01 µM (active) | 0.019 µM (active) | < 0.01 µM (active) | > 60.8 µM (inactive) | < 0.01 µM (active)
COc1ccc(-c2cc(=O)c3c(OC)c(OC)c(OC)c(OC)c3o2)c(OC)c1 | 32.3 µM (inactive) | 21.6 µM (inactive) | 24.8 µM (inactive) | 29.8 µM (inactive) | 25.6 µM | 29.7 µM (inactive) | 18 µM (inactive) | 17.2 µM (inactive) | 25.1 µM (inactive) | 29.1 µM (inactive) | 30.5 µM (inactive) | 31 µM (inactive) | 32.1 µM (inactive) | 16.8 µM (inactive) | 33 µM (inactive) | 16 µM (inactive) | 15.6 µM (inactive) | > 100 µM (inactive) | 8.65 µM (inactive) | 30.8 µM (inactive)
